Test results reported in patent US10662204B2 (PFIZER INC., priority 2018, dated 2020).

Key:
[1] = biological target: T1, GDP-loaded KRAS (1-169) G12C, C51S, C80L, C118S (Homo sapiens, UniProt P01116, C118S/C51S/C80L/G12C); assay: Mass Spectrometry Reactivity Assay (MSRA): covalent adduct of compound and KRAS G12C, Percent Modification; format: binding; conditions: for MSRA (% modification) 10 μM 0.50 hr / MSRA (% modification) 10 μM 0.25 hr: 10 μM compound; for MSRA (% modification) 5.0 μM 0.017 hr / MSRA (% modification) 5.0 μM 0.25 hr: 5.0 μM compound
T1 construct: GDP-loaded KRAS (1-169) G12C, C51S, C80L, C118S
Summary of the method: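 Covalent labelling is measured by intact mass: deconvoluted modified and unmodified peak intensities yield percent modification. Compound, usually 5 μM or 10 μM final, reacts at room temperature with 5 μM GDP-bound KRAS G12C (1-169, C51S/C80L/C118S) in Hepes pH 7.5/NaCl/glycerol, sampled at 1, 15, 30, 60 min.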

KRAS G12C = KRAS G12C (Homo sapiens, UniProt P01116, G12C); assay: Cell Activity Assay: accumulation of GDP-bound KRAS G12C in MIAPaCa-2 cells (Raf-1 RBD capture, MSD readout); format: cell-based; design: endogenous in cells; host or cells: MIAPaCa-2; conditions: 6 hours, assay limit is 30.00
Summary of the method: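 IC50 came from a 4-parameter fit of Ras signal normalized between DMSO and full-inhibition controls. Readout: lysate GTP-Ras bound to immobilized Raf-1 RBD, quantified with pan-Ras antibody and MSD electrochemiluminescence. Lysates derived from MIAPaCa-2 cells treated 6 h with serially diluted compound, 0.3% DMSO.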

SMILES	MSRA (% modification) 10 μM 0.50 hr [1]	IC50 (KRAS G12C)	MSRA (% modification) 5.0 μM 0.017 hr [1]	MSRA (% modification) 10 μM 0.25 hr [1]	MSRA (% modification) 5.0 μM 0.25 hr [1]
C=CC(=O)N1CCN(c2ncnc3c(Oc4c(C)ccc5[nH]ncc45)cc(C#N)cc23)CC1 [Example 14C]	20%	27.8 µM	–	–	–
C=CC(=O)N1CCN(c2nc(O[C@@H]3CN(C)C[C@H]3OCC)nc3c(Oc4c(Cl)c(F)cc5[nH]ncc45)nc(Cl)cc23)CC1 [Example 27G, 1-[4-(6-chloro-8-[(5-chloro-6-fluoro-1H-indazol-4-yl)oxy]-2-{[(3R,4R)-4-ethoxy-1-methylpyrrolidin-3-yl]oxy}pyrido[3,4-d]pyrimidin-4-yl)piperazin-1-yl]prop-2-en-1-one]	–	0.029 µM	67%	–	–
C=CC(=O)N1CCN(c2nc(O[C@@H]3CN(C)C[C@H]3OC)nc3c(Oc4c(C)ccc5[nH]ncc45)nc(Cl)cc23)CC1 [Example 35G, 1-[4-(6-chloro-2-{[(3R,4R)-4-methoxy-1-methylpyrrolidin-3-yl]oxy}-8-[(5-methyl-1H-indazol-4-yl)oxy]pyrido[3,4-d]pyrimidin-4-yl)piperazin-1-yl]prop-2-en-1-one]	–	0.027 µM	75%	–	–
C=CC(=O)N1CCN(c2nc(OC[C@@H]3CCN(C)C3)nc3c(Oc4c(C)ccc5[nH]ncc45)nccc23)CC1 [Example 10B, 1-[4-(8-[(5-methyl-1H-indazol-4-yl)oxy]-2-{[(3R)-1-methylpyrrolidin-3-yl]methoxy}pyrido[3,4-d]pyrimidin-4-yl)piperazin-1-yl]prop-2-en-1-one]	–	13.4 µM	–	60%	–
C=CC(=O)N1CCN(c2nc(O[C@@H]3CN(C)C[C@H]3OC)nc3c(Oc4c(Cl)c(F)cc5[nH]ncc45)nccc23)[C@@H](C)C1 [Example 33I, 1-[(3S)-4-(8-[(5-chloro-6-fluoro-1H-indazol-4-yl)oxy]-2-{[(3R,4R)-4-methoxy-1-methyl-pyrrolidin-3-yl]oxy}pyrido [3,4-d]pyrimidin-4-yl)-3-methyl-piperazin-1-yl]prop-2-en-1-one]	–	0.039 µM	74%	–	–
C=CC(=O)N1CCN(c2nc(OCC3CC(=O)N(C)C3)nc3c(Oc4c(Cl)c(F)cc5[nH]ncc45)nccc23)CC1 (stereo not shown) [Example 03J, 4-[({4-(4-acryloylpiperazin-1-yl)-8-[(5-chloro-6-fluoro-1H-indazol-4-yl)oxy]pyrido[3,4-d]pyrimidin-2-yl}oxy)methyl]-1-methylpyrrolidin-2-one]	–	0.855 µM	–	–	77%
C=CC(=O)N1CCN(c2ncnc3c(Oc4c(Cl)c(C)cc5[nH]ncc45)nc(C)cc23)CC1 [Example 05C, 1-(4-{8-[(5-chloro-6-methyl-1H-indazol-4-yl)oxy]-6-methylpyrido[3,4-d]pyrimidin-4-yl}piperazin-1-yl)prop-2-en-1-one]	61%	1.29 µM	–	–	–
C=CC(=O)N1CCN(c2nc(NCCC(=O)N(C)C)nc3c(Oc4c(C)ccc5[nH]ncc45)cccc23)CC1 [Example 06F, N^3-{4-(4-acryloylpiperazin-1-yl)-8-[(5-methyl-1H-indazol-4-yl)oxy]quinazolin-2-yl}-N,N-dimethyl-β-alaninamide]	46%	3.24 µM	–	–	–
C=CC(=O)N1CCN(c2nc(O[C@@H]3CN(C)C[C@H]3OC)nc3c(Oc4c(Cl)c(F)cc5[nH]ncc45)nccc23)C[C@H]1C [Example 35I, 1-[(2R)-4-(8-[(5-chloro-6-fluoro-1H-indazol-4-yl)oxy]-2-{[(3R,4R)-4-methoxy-1-methyl-pyrrolidin-3-yl]oxy}pyrido [3,4-d]pyrimidin-4-yl)-2-methyl-piperazin-1-yl]prop-2-en-1-one]	–	0.155 µM	24%	–	–
C=CC(=O)N1CCN(c2nc(O[C@@H]3CN(CCOC)C[C@H]3OC)nc3c(Oc4c(Cl)c(F)cc5[nH]ncc45)nccc23)CC1 [Example 18H, 1-[4-(8-[(5-chloro-6-fluoro-1H-indazol-4-yl)oxy]-2-{[(3R,4R)-4-methoxy-1-(2-methoxyethyl)pyrrolidin-3-yl]oxy}pyrido[3,4-d]pyrimidin-4-yl)piperazin-1-yl]prop-2-en-1-one]	–	0.07 µM	52%	–	–
C=CC(=O)N1CCN(c2nc(OC[C@@H]3CCCN3C)nc3c(Oc4c(Cl)c(F)cc5[nH]ncc45)nc(Cl)cc23)C[C@H]1C [Example 04G, 1-[(2R)-4-(6-chloro-8-[(5-chloro-6-fluoro-1H-indazol-4-yl)oxy]-2-{[(2S)-1-methylpyrrolidin-2-yl]methoxy}pyrido[3,4-d]pyrimidin-4-yl)-2-methylpiperazin-1-yl]prop-2-en-1-one]	–	0.393 µM	–	49%	–
C=CC(=O)N1CCN(c2ncnc3c(Oc4c(C)c(Cl)cc5[nH]ncc45)nc(Cl)cc23)CC1 [Example 31A, 1-(4-{6-chloro-8-[(6-chloro-5-methyl-1H-indazol-4-yl)oxy]pyrido[3,4-d]pyrimidin-4-yl}piperazin-1-yl)prop-2-en-1-one]	79%	0.171 µM	–	–	–
C#CCCN1C[C@@H](OC)[C@H](Oc2nc(N3CCN(C(=O)C=C)CC3)c3ccnc(Oc4c(Cl)c(F)cc5[nH]ncc45)c3n2)C1 [Example 44I, 1-[4-(2-{[(3R,4R)-1-(but-3-yn-1-yl)-4-methoxy-pyrrolidin-3-yl]oxy}-8-[(5-chloro-6-fluoro-1H-indazol-4-yl)oxy]pyrido [3,4-d]pyrimidin-4-yl)piperazin-1-yl]prop-2-en-1-one]	–	0.032 µM	56%	–	–
C=CC(=O)N1CCN(c2nc(OCCNC(C)=O)nc3c(Oc4c(C)ccc5[nH]ncc45)cccc23)CC1 [Example 17F, N-[2-({4-(4-acryloylpiperazin-1-yl)-8-[(5-methyl-1H-indazol-4-yl)oxy]quinazolin-2-yl}oxy)ethyl]acetamide]	60%	4.59 µM	–	36%	–
C=CC(=O)N1CCN(c2nc(OC[C@@H]3CCCN3C)nc3c(Oc4c(C)c(Cl)cc5[nH]ncc45)nc(Cl)cc23)CC1 [Example 10G, 1-[4-(6-chloro-8-[(6-chloro-5-methyl-1H-indazol-4-yl)oxy]-2-{[(2S)-1-methylpyrrolidin-2-yl]methoxy}pyrido[3,4-d]pyrimidin-4-yl)piperazin-1-yl]prop-2-en-1-one]	–	0.071 µM	–	53%	–
C=CC(=O)N1CCN(c2nc(O[C@H]3CCOC3)nc3c(Oc4c(Cl)c(F)cc5[nH]ncc45)nccc23)CC1 [Example 01J, 1-(4-{8-[(5-chloro-6-fluoro-1H-indazol-4-yl)oxy]-2-[(3S)-tetrahydrofuran-3-yloxy]pyrido[3,4-d]pyrimidin-4-yl}piperazin-1-yl)prop-2-en-1-one]	–	0.339 µM	–	–	55%
C=CC(=O)N1CCN(c2nc(OC[C@@H]3CCCN3C)nc3c(Oc4c(C)c(F)cc5[nH]ncc45)nccc23)CC1 [Example 04I, 1-[4-(8-[(6-fluoro-5-methyl-1H-indazol-4-yl)oxy]-2-{[(2S)-1-methyl-pyrrolidin-2-yl]methoxy}pyrido [3,4-d]pyrimidin-4-yl)piperazin-1-yl]prop-2-en-1-one]	–	0.375 µM	–	–	55%
C=CC(=O)N1CCN(c2nc(OC[C@H]3CCCN3C)nc3c(Oc4c(Cl)c(F)cc5[nH]ncc45)cccc23)CC1 [Example 20E, 1-[4-(8-[(5-chloro-6-fluoro-1H-indazol-4-yl)oxy]-2-{[(2R)-1-methylpyrrolidin-2-yl]methoxy}quinazolin-4-yl)piperazin-1-yl]prop-2-en-1-one]	–	1.02 µM	–	8%	–
C=CC(=O)N1CCN(c2nc(OC[C@H]3CCCN3C)nc3c(Oc4c(Cl)c(F)cc5[nH]ncc45)nccc23)CC1 [Example 17E, 1-[4-(8-[(5-chloro-6-fluoro-1H-indazol-4-yl)oxy]-2-{[(2R)-1-methylpyrrolidin-2-yl]methoxy}pyrido[3,4-d]pyrimidin-4-yl)piperazin-1-yl]prop-2-en-1-one]	83%	0.197 µM	–	80%	76%
C=CC(=O)N1CCN(c2nc(OC3CCN(C)CC3)nc3c(Oc4c(Cl)c(F)cc5[nH]ncc45)nccc23)CC1 [Example 16I, 1-(4-{8-[(5-chloro-6-fluoro-1H-indazol-4-yl)oxy]-2-[(1-methyl-piperidin-4-yl)oxy]pyrido [3,4-d]pyrimidin-4-yl}piperazin-1-yl)prop-2-en-1-one]	–	0.582 µM	–	–	48%
